Assay results from the supplement of paper PMC11208160.

Test: recombinant barcode read abundance after kanamycin selection (control-corrected) (log10(CPM+1)); higher = more efficient recombination; sequences stand for … in AGTGCAGAGAAAATCGGCCAGTTTTCTCTGCCTGCAGTCCGCATGCCGT…AGATTTATGCAGCGGACTGCCTTTCTCCCAAAGTGATAAACCGGACAGTATCATGGACCGGTTTTCCCGGTAATCCGTATTTGCAAGGTTGGTTTCACT; site = the 11-nt target
Outline: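 Recombination efficiency was calculated from barcode counts at recombinant junctions, normalized to counts per million, averaged and corrected by the control. Each value is given as log10(CPM+1). The constructs were Gibson-cloned oligos (promoter, target, barcode, J23119-driven first 104 bridge RNA bases) in a vector with the remaining 73 bp and a T7-inducible recombinase, co-electroporated into E. coli with a donor plasmid and plated in duplicate on chloramphenicol/ampicillin LB agar (control) or chloramphenicol/ampicillin/kanamycin with 0.1 mM IPTG.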
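Note: IS621 recombinase and bridge RNA in Escherichia coli cells.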

Row | Sequence | recombinant barcode read abundance (log10)
1 | AGCCACCCTTGGGTTCTAACCTGTTGCCT (site AGCCACCCTAG) | 0.425
2 | CTGGGGTCTTGGGTTCTAACCTGTTGCTT (site CTGGGGTCTAA) | 2.43
3 | GACTTGCCTTGGGTTCTAACCTGTTGCAT (site GACTTACCTAT) | 0.0511
4 | GTTCATCCTTGGGTTCTAACCTGTTGCCT (site GATCATCCTAG) | 0.48
5 | GTGTACCCTTGGGTTCTAACCTGTTGCCT (site GGGTACCCTAG) | 0.068
6 | ACTGCGGCTTGGGTTCTAACCTGTTGCCT (site ACTGCGGCTAG) | 0.617
7 | CAACCGGCTTGGGTTCTAACCTGTTGCCT (site CAACCGGCTAG) | 0.986
8 | CACCGTTCTTGGGTTCTAACCTGTTGCTT (site CATCGCTCTAA) | 0.0503
9 | CCGTCCTCTTGGGTTCTAACCTGTTGCTG (site CAGTCCTCTCA) | 0.0234
10 | CGCAGCTCTTGGGTTCTAACCTGTTGCCT (site CGAAGCTCTAG) | 0.0165
11 | CCTTGGACTTGGGTTCTAACCTGTTGCCT (site CCTTGGACTAG) | 0.427
12 | CGATCTCCTTGGGTTCTAACCTGTTGCAC (site ACTCACTCTAG) | 0.0376
13 | GCCAGGGCTTGGGTTCTAACCTGTTGCCG (site GCCGGGGCTCG) | 0.111
14 | CTCTCCTCTTGGGTTCTAACCTGTTGCCT (site CTCTCCTCTAG) | 1.28
15 | TCTTGGACTTGGGTTCTAACCTGTTGCTT (site TCTTGGACTAA) | 0.421
16 | TGATAGCCTTGGGTTCTAACCTGTTGCCT (site GGATAGCCTAG) | 0.159
17 | GGTCGAGCTTGGGTTCTAACCTGTTGCCT (site GGTCGAGCTAG) | 1.13
18 | CCTGGGACTTGGGTTCTAACCTGTTGCTA (site CCTGGGACTTA) | 2.03
19 | TGAGATGCTTGGGTTCTAACCTGTTGCCT (site TGAGATGCTAG) | 1.72
20 | ATGGTACCTTGGGTTCTAACCTGTTGCTA (site ATGGTACCTTA) | 2.34
21 | CTACCAACTTGGGTTCTAACCTGTTGCCT (site CTACCATCTAG) | 0.0148
22 | GTCAAGCCTTGGGTTCTAACCTGTTGCTA (site GTCAAGCCTTA) | 0.705

Row | Sequence | recombinant barcode read abundance (log10)
23 | ACCGGTACTTGGGTTCTAACCTGTTGCCT (site ACCAGTACTAG) | 0.408
24 | TTGTGAGCTTGGGTTCTAACCTGTTGCGG (site TTGTGAGCTCC) | 1.15
25 | AGCCTGCCTTGGGTTCTAACCTGTTGCCT (site AGCCTGTCTAG) | 0.0826
26 | GACGCCTCTTGGGTTCTAACCTGTTGCCT (site TACGCCTCTAG) | 0
27 | GAAGGGACTTGGGTTCTAACCTGTTGCCT (site GAAGGGACTAG) | 2.11
28 | TCCCATACTTGGGTTCTAACCTGTTGCCT (site TCCCATTCTAG) | 0.0766
29 | CGGTCTACTTGGGTTCTAACCTGTTGCCT (site CCGTCTACTAG) | 0.264
30 | GACATCTCTTGGGTTCTAACCTGTTGCCT (site GACATCGCTAG) | 0.0954
31 | GCCCTCCCTTGGGTTCTAACCTGTTGCCT (site GCACTCCCTAG) | 0.558
32 | AGAGGAGCTTGGGTTCTAACCTGTTGCAG (site AGAGGAGCTCT) | 1.79
33 | GAGGCTCCTTGGGTTCTAACCTGTTGCCC (site GAGGCTCCTAG) | 0.372
34 | TAGACTACTTGGGTTCTAACCTGTTGCTT (site TAGACTACTGA) | 0.0122
35 | CTGGTGCCTTGGGTTCTAACCTGTTGCCT (site CAGGTGCCTAG) | 0.808
36 | TGAGTGGCTTGGGTTCTAACCTGTTGCCT (site TGAGGGGCTAG) | 0.00884
37 | GCCAACCCTTGGGTTCTAACCTGTTGCAT (site GCCAACCCTAT) | 0
38 | TCCCAGTCTTGGGTTCTAACCTGTTGCGT (site TCCCAGTCTAT) | 1.6
39 | ACTGCTCCTTGGGTTCTAACCTGTTGCCT (site ACTGCTCCTAG) | 0.881
40 | CCAACCGCTTGGGTTCTAACCTGTTGCCT (site CTAACCGCTAG) | 0.0644
41 | GGCTGTTCTTGGGTTCTAACCTGTTGCCT (site GTCTGTTCTAG) | 0.242
42 | AACAGTACTTGGGTTCTAACCTGTTGCCT (site TACAGTACTAG) | 0.17
43 | GATGAGACTTGGGTTCTAACCTGTTGCCG (site GCTGAGACTCG) | 0.223
